“And” between values parts separate entries of the source, which are not always exact repeats. Equal entries are not always repeated. “Also recorded” adds a separate entry of the source. Where two headings read alike, the source gives them in different places. Where a SMILES comes first, the peptide text is derived from it. Where no end group is shown, it is not given here. The star is where a group is joined. 2‑naphthylmethyl = c1ccc2cc(C*)ccc2c1; Palmitoyl = CCCCCCCCCCCCCCCC(=O)*
What was measured:
[1] = ATR-FT-IR determination of β-sheet content; format: physicochemical; details: for β-sheet amount: 1 mg/mL in PBS lyophilized, integral at 1630 cm^-1 relative to 1650-1700 cm^-1; for β-sheet content / %: peak integration of parallel β-sheet at 1630 cm-1, 2nd derivative of ATR-IR spectra
Procedure, shortened: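 From second-derivative spectra, β-sheet amount is the 1630 cm-1 integral over the 1650-1700 cm-1 (native) region. Spectra were taken on solid, lyophilized fibrils via diamond-crystal ATR, averaging 64 scans at 2 cm^-1 resolution.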

[2] = TEM of peptide assemblies (fibril formation / assembly); format: physicochemical; design: key to Fibril Formation: "1" means fibril formation observed; "0" means no fibrils observed; details: for TEM morphology (in words): 1 mg/mL in PBS; for Assembly without hydrophob residue: corresponding peptide without hydrophobic moiety; for Assembly: peptide amphiphile
Procedure, shortened: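 Peptides predissolved in DMSO at 10 mg/mL (stock), diluted in PBS to 650 µM or 1 mg/mL final and incubated 1 d at rt (20–25 °C) to form fibrils. Other concentrations obtained by diluting preformed fibrils; assemblies imaged by TEM.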

[3] = Fluorescence microscopy of ThT-stained fibrils (µm-sized aggregates); format: physicochemical; details: for fluorescent, µm-sized aggregates (ThT staining): 1 mg/mL stained with 50 µM ThT
Procedure, shortened: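 Fibrils (1 mg mL^-1) mixed 1:9 with 50 µM ThT, giving 0.1 mg mL^-1 stained fibrils on glass. Imaged under 10x air objective with excitation 480/40 nm and emission 527/30 nm. Fibrils called distinct when no visible structures appeared in fluorescence or brightfield.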

[4] = tested on: HIV-1; details: for Infectivity enhancing N fold at 1.3 µM: relative to virus only; for enhancement of HIV-1 infection / transduction (in words): 6.5 µM, 1.3 µM, 0.26 µM;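 on all read-outs here: TZM-bl reporter cells exposed to HIV-1 with peptide fibrils, infection read out as β-galactosidase luminescence, compared with virus alone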
Protocol: HIV-1 Infection Assay with TZM-bl cells: The effect of peptide fibrils on HIV-1 infection was studied via a luminescence assay for β-galactosidase, which was reported by TZM-bl cells upon infection. The HIV-1 infection assay was conducted in three technical replicates and repeated in three independent experiments unless stated otherwise.

[5] = Zeta-potential measurement (dynamic light scattering); format: physicochemical
[6] = as above; format: physicochemical; details: for Zeta Potential / mV: 1 mg/mL, PBS
Protocol: Zeta-potential: 60 µL of the peptides (1 mg mL-1) were diluted in 600 µL, 1 mM KCI solution and placed in a disposable folded capillary cuvette. All zeta-potential measurements were conducted by dynamic light scattering technology (Zetasizer, Malvern Instruments) and in triplicates for each sample. The derived count rate of the zeta potential measurement was used as information on the light scattering intensity and turbidity of the sample as a further indicator for microscopic aggregation.

[7] = Thioflavin T (ThT) fluorescence assay; format: physicochemical; design: key to ThT: + = ThT active; - = no ThT fluorescence observed; details: for ThT: ThT fluorescence, 1 mg/mL, PBS
Protocol: Transmission electron microscopy (TEM) measurements, Thioflavin (ThT), zeta-potential measurements for fibril characterization were prepared and conducted according to prior art procedures. […] Fibrils were defined as distinct, if no visible structures could be identified in fluorescence and brightfield microscopy. A peptide fibril was considered as ThT-active if the fluorescence intensity was at least twice as strong compared to the control (PBS containing 10% DMSO).

[8] = tested on: HeLa cells; assay: Confocal laser scanning microscopy and degradation study with PA library and HeLa cells; format: cell-based; details: for association with cellular membranes: 2 µg added to 20.000 HeLa cells, 30 min; for degradability (in words) / Degradability / % (rel. to initial particles > 10 µm^2): HeLa cells; for degradability (in words): 3 days; for Degradability / % (rel. to initial particles > 10 µm^2): 3 d relative to 30 min; for aggregate number decreases / degraded in presence of HeLa cells within 3 days: d3 relative to d0
Procedure, shortened: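 HeLa cells (20,000/well) got Proteostat-stained PAs (2 µg peptide per 20.000 cells) with Hoechst nuclear stain, 30 min at 37°C, PBS-washed, then held 3 d at 37°C unwashed. Confocal imaging at d0 and d3 counted aggregates >10 µm^2 in 1008 × 1008 µm, three technical replicates. Degradation taken as d3/d0 aggregate number.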

Molecule	β-sheet amount [1] [%]	TEM morphology (in words) [2]	Assembly without hydrophob residue [2]	Assembly [2]	fluorescent, µm-sized aggregates (ThT staining) [3]	enhances infectivity at 1.3 µM concentration, times more efficient compared to virus only infection [4] [times]	Infectivity enhancing N fold at 1.3 µM [4]	Zeta-Potential / mV [5] [mV]	Zeta Potential / mV [6]	ThT [7]	β-sheet content / % [1] [%]	formation of µm-sized aggregates in aqueous medium / PBS (in words) [3]	association with cellular membranes [8]	degradability (in words) [8]	Degradability / % (rel. to initial particles > 10 µm^2) [8] [%]	aggregate number decreases / degraded in presence of HeLa cells within 3 days [8] [%]	other results
CCCCCCCCCCCCCCCC(=O)N[C@@H](C)C(=O)NCC(=O)NCC(=O)N[C@@H](CCCNC(=N)N)C(=O)N[C@H](C(=O)N[C@@H](CCCCN)C(N)=O)C(C)C [Pat18, C16-AGGRVK-NH2] (Palmitoyl-AGGRVK-NH2)	56	fibrillar morphologies	No	Yes	no fluorescent, µm-sized aggregates	3	3±1 N fold	15.9									
VVVAAAKKK-NH2 [P1]		amorphous aggregates; also recorded: non-fibrillar amorphous aggregates							-2.3 ± 0.4 mV	-	48	does not form µm-sized aggregates in PBS					enhancement of HIV-1 infection / transduction (in words) [4]: inactive
FQFKFKC-NH2 [P2, FQFKFKC-NH2]		Formation of fibrils; also recorded: twisted fibrils							+10.1 ± 3.0 mV	-	46	does not form µm-sized aggregates in PBS					enhancement of HIV-1 infection / transduction (in words) [4]: inactive
Nap-VVVAAAKKK-NH2 ({2‑naphthylmethyl}-VVVAAAKKK-NH2; SMILES CC(C)[C@H](NCc1ccc2ccccc2c1)C(=O)N[C@H](C(=O)N[C@H](C(=O)N[C@@H](C)C(=O)N[C@@H](C)C(=O)N[C@@H](C)C(=O)N[C@@H](CCCCN)C(=O)N[C@@H](CCCCN)C(=O)N[C@@H](CCCCN)C(N)=O)C(C)C)C(C)C) [Pat13]	46	formed fibrils in aqueous medium	No	Yes			1±1 N fold	1.2				failed to form µm-sized aggregates in aqueous medium					zeta-potential (in words) [6]: almost neutral zeta-potential; Count Rate / kcps ([6]; derived count rate of scattered light during zeta-potential measurements): 9.3 kcps; N-fold ThT-fluorescence ([7]; relative to PBS control): 1.3; Fibril Formation ([2]; via TEM, hydrophobic moiety exchange): 1; infectivity enhancement at 1.3 µM concentration compared to virus only infection (in words) [4]: does not enhance infectivity
VVVAAAEEE-NH2 [P3]		amorphous aggregates; also recorded: non-fibrillar amorphous aggregates							-21.2 ± 1.5 mV	-	46	does not form µm-sized aggregates in PBS					
CCCCCCCCCCCCCCCC(=O)N[C@@H](C)C(=O)N[C@@H](CC(C)C)C(=O)N[C@@H](C)C(=O)N[C@@H](C)C(=O)NCC(=O)N[C@@H](CCCCN)C(=O)N[C@@H](CCCCN)C(N)=O [Pat20, C16-ALAAGKK-NH2] (Palmitoyl-ALAAGKK-NH2)	48	fibrillar morphologies	No	Yes	fluorescent, µm-sized aggregates	5	5±1 N fold	20.2					association with cellular membranes	degradable PA	87	87	
CCCCCCCCCCCCCCCC(=O)N[C@@H](CC(C)C)C(=O)N[C@@H](CC(C)C)C(=O)N[C@@H](CC(C)C)C(=O)N[C@@H](CCCCN)C(=O)N[C@@H](CCCCN)C(N)=O [Pat23, C16-LLLKK-NH2] (Palmitoyl-LLLKK-NH2)	46	fibrillar morphologies	No	Yes	fluorescent, µm-sized aggregates	3	3±0 N fold	20.9					association with cellular membranes	moderately degradable PA	27	27	
CCCCCCCCCCCCCCCC(=O)N[C@H](C(=O)N[C@H](C(=O)N[C@@H](CCC(N)=O)C(=O)N[C@@H](CCCCN)C(=O)N[C@H](C(=O)N[C@@H](CCCCN)C(N)=O)[C@@H](C)CC)[C@@H](C)CC)[C@@H](C)CC [Pat15, C16-IIQKIK-NH2] (Palmitoyl-IIQKIK-NH2)	45	fibrillar morphologies	No	Yes	fluorescent, µm-sized aggregates	4	4±1 N fold	12.6					association with cellular membranes	degradable PA	-28	28	Degradability / % (rel. to initial particles > 10 µm^2) ([8]; listed as Pat 15): 28%; Infectivity enhancing N fold at 1.3 µM ([4]; listed as Pat 15): 4 N fold
CCCCCCCCCCCCCCCC(=O)N[C@@H](CC(C)C)C(=O)N[C@@H](CC(N)=O)C(=O)NCC(=O)NCC(=O)N[C@H](C(=O)N[C@@H](CCCCN)C(=O)N[C@@H](CCCCN)C(N)=O)C(C)C [Pat19, C16-LNGGVKK-NH2] (Palmitoyl-LNGGVKK-NH2)	34	fibrillar morphologies	No	Yes	fluorescent, µm-sized aggregates	6	6 N fold and 6±1 N fold	19.4					association with cellular membranes	degradable PA	48	48	
CCCCCCCCCCCCCCCC(=O)N[C@@H](C)C(=O)N[C@@H](CCCCN)C(=O)N[C@@H](C)C(=O)N[C@H](C(=O)NCC(=O)N[C@@H](CCCCN)C(N)=O)C(C)C [Pat31, C16-AKAVGK-NH2] (Palmitoyl-AKAVGK-NH2)	43	fibrillar morphologies	No	Yes	fluorescent, µm-sized aggregates	6	6 N fold and 6±3 N fold	19.7					association with cellular membranes	degradable PA	89	89	

Reference: EP4458977A1, “SELF-ASSEMBLING PEPTIDE AMPHIPHILES AS RETROVIRAL TRANSDUCTION ENHANCERS” (Max-Planck-Gesellschaft zur Förderung der Wissenschaften …, priority 2023, dated 2024)
